Patent US10124004B2, “Pyrido[3,4-d]pyrimidine derivative and pharmaceutically acceptable salt thereof” (Teijin Pharma Limited, priority 2015, dated 2018)

Assays:
CDK4/cyclin D3 = biological target: T1, CDK4/cyclin D3 (Homo sapiens, UniProt P11802); experiment: Human CDK4/cyclin D3 inhibitory activity (QS S Assist CDK4/Cyclin D3_FP Kit, IMAP fluorescence polarization); assay type: biochemical; settings: 50% inhibitory concentration against CDK4/cyclin D3, given as class symbol
T1 construct: purchased Carna Biosciences, Inc. QS S Assist CDK4/Cyclin D3_FP Kit
T1 sequence (P11802 whole entry): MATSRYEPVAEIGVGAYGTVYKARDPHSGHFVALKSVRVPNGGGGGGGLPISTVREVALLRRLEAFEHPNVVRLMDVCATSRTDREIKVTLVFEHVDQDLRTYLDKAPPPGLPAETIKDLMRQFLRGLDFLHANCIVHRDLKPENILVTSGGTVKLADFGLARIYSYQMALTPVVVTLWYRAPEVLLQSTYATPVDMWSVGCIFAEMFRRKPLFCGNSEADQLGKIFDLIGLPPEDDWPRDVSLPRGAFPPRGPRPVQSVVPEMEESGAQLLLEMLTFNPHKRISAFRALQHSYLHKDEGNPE
T1 sequence (P30281 whole entry partner): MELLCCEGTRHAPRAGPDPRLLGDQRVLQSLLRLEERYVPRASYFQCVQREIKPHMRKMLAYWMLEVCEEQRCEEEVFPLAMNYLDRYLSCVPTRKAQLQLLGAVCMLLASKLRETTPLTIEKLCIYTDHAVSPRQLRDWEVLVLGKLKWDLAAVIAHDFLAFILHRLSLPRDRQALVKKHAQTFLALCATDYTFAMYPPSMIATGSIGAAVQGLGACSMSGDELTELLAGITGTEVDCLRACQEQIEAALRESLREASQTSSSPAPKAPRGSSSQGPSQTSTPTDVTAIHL
How it was run: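 Percent inhibition, relative to DMSO with and without enzyme, was curve-fitted to give IC50 from polarization (ex 485, em 535 nm). The 45-min room-temperature reaction used 12.5-25 ng/well enzyme, kit ATP/substrate/metal mix, and HEPES pH 7.4 buffer with Tween20 and DTT, followed by 30-min IMAP binding in the dark.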

CDK2/cyclin A2 = biological target: T2, CDK2/cyclin A2 (Homo sapiens, UniProt P24941); experiment: Human CDK2/cyclin A2 inhibitory activity (QS S Assist CDK2/Cyclin A2_FP Kit, IMAP fluorescence polarization); assay type: biochemical; settings: 50% inhibitory concentration against CDK2/cyclin A2, given as class symbol
T2 construct: purchased Carna Biosciences, Inc. QS S Assist CDK2/Cyclin A2_FP Kit
How it was run: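 Kinase activity read as fluorescence polarization (485/535 nm) after phosphorylated fluorescent substrate binds IMAP reagent (30 min, RT, dark). Enzyme (2.5 ng/well) reacted 60 min at RT with ATP/substrate/metal in HEPES pH 7.4 buffer with Tween 20 and DTT; no-enzyme wells define 0% activity; IC50 by curve fit.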

IC50 (CDK4/cyclin D3) [nM]	IC50 (CDK2/cyclin A2) [nM]	Compound
< 10	≥ 100	CCNc1nc([C@@H](C)O)cc2cnc(Nc3ccc(CN4CCC(O)CC4)cn3)nc12 [Compound 1060]
< 10	≥ 100	CCCCNc1nc([C@@H](C)O)cc2cnc(Nc3ccc(CN4CCC(O)CC4)cn3)nc12 [Compound 1061]
< 10	≥ 100	C[C@@H](O)c1cc2cnc(Nc3ccc(CN4CCC(O)CC4)cn3)nc2c(NC2CCC2)n1 [Compound 1063]
< 10	≥ 100	C[C@@H](O)c1cc2cnc(Nc3ccc(CN4CCC(O)CC4)cn3)nc2c(N[C@H]2CC[C@H](O)CC2)n1 [Compound 1064]
< 10	≥ 100	C[C@@H](O)c1cc2cnc(Nc3ccc(CN4CCC(O)CC4)cn3)nc2c(NCC2CCOCC2)n1 [Compound 1065]
10 to 100	≥ 100	CCC(OC)c1cc2cnc(Nc3ccc(CN4CCNCC4)cn3)nc2c(NC(C)C)n1 (stereo not shown) [Compound 1066]
< 10	≥ 100	CCC(OC)c1cc2cnc(Nc3ccc(CN4CCNCC4)cn3)nc2c(NC(C)C)n1 (stereo not shown) [Compound 1067]
≥ 100	≥ 100	CCC(OC)c1cc2cnc(Nc3ccc(N4CCNCC4)nn3)nc2c(NC(C)C)n1 (stereo not shown) [Compound 1068]
10 to 100	≥ 100	CCC(OC)c1cc2cnc(Nc3ccc(N4CCNCC4)nn3)nc2c(NC(C)C)n1 (stereo not shown) [Compound 1069]
< 10	≥ 100	C[C@@H](O)c1cc2cnc(Nc3ccc(CN4CCN(CCO)CC4)cn3)nc2c(NC2CCCC2)n1 [Compound 1070]
< 10	≥ 100	C[C@@H](O)c1cc2cnc(Nc3ccc(CN4CCN(CCO)CC4)cn3)nc2c(NC(C)(C)C)n1 [Compound 1071]
< 10	≥ 100	CCNc1nc([C@@H](C)O)cc2cnc(Nc3ccc(CN4CCN(CCCO)CC4)cn3)nc12 [Compound 1072]
< 10	≥ 100	CCNc1nc([C@@H](C)O)cc2cnc(Nc3ccc(CN4CCN(CC(C)(C)O)CC4)cn3)nc12 [Compound 1073]
< 10	≥ 100	C[C@@H](O)c1cc2cnc(Nc3ccc(CN4CCN(CCO)CC4)cn3)nc2c(NCCCF)n1 [Compound 1074]
< 10	≥ 100	CCCNc1nc([C@@H](C)O)cc2cnc(Nc3ccc(CN4CCN(C[C@H](C)O)CC4)cn3)nc12 [Compound 1075]
< 10	≥ 100	CCCNc1nc([C@@H](C)O)cc2cnc(Nc3ccc(CN4CCN(CCO)C[C@H]4C)cn3)nc12 [Compound 1076]
< 10	≥ 100	CCCNc1nc([C@@H](C)O)cc2cnc(Nc3ccc(CN4CCN(CCO)C[C@@H]4C)cn3)nc12 [Compound 1077]
< 10	≥ 100	C[C@@H](O)c1cc2cnc(Nc3ccc(N4CCNCC4=O)cn3)nc2c(NC2CCCC2)n1 [Compound 1078]
< 10	≥ 100	C[C@@H](O)c1cc2cnc(Nc3ccc(N4CCNCC4=O)cn3)nc2c(NCCCF)n1 [Compound 1079]
< 10	≥ 100	CCNc1nc([C@@H](C)O)cc2cnc(Nc3ccc(CN4CCCC(O)C4)cn3)nc12 (stereo partly shown) [Compound 1080]

IC50 (CDK4/cyclin D3) [nM]	IC50 (CDK2/cyclin A2) [nM]	Compound
< 10	≥ 100	CCCNc1nc([C@@H](C)O)cc2cnc(Nc3ccc(CN4CCCC(O)C4)cn3)nc12 (stereo partly shown) [Compound 1081]
< 10	≥ 100	C[C@@H](O)c1cc2cnc(Nc3ccc(CN4CCCC(O)C4)cn3)nc2c(NCC2CC2)n1 (stereo partly shown) [Compound 1083]
< 10	≥ 100	C[C@@H](O)c1cc2cnc(Nc3ccc(CN4CCCC(O)C4)cn3)nc2c(NC2CCC2)n1 (stereo partly shown) [Compound 1084]
< 10	≥ 100	CC(C)CNc1nc([C@@H](C)O)cc2cnc(Nc3ccc(CN4CCCC(O)C4)cn3)nc12 (stereo partly shown) [Compound 1085]
< 10	≥ 100	C[C@@H](O)c1cc2cnc(Nc3ccc(CN4CCCC(O)C4)cn3)nc2c(N[C@H]2CC[C@H](O)CC2)n1 (stereo partly shown) [Compound 1086]
< 10	≥ 100	C[C@@H](O)c1cc2cnc(Nc3ccc(CN4CCCC(O)C4)cn3)nc2c(NCC2CCOCC2)n1 (stereo partly shown) [Compound 1087]
< 10	≥ 100	CC(C)Nc1nc([C@@H](C)O)cc2cnc(Nc3ccc(N4CCN(C(=O)CO)CC4)cn3)nc12 [Compound 1090]
< 10	≥ 100	CCNc1nc([C@@H](C)O)cc2cnc(Nc3ccc(N4CCNCC4)c(C)n3)nc12 [Compound 1091]
< 10	≥ 100	CCCNc1nc([C@@H](C)O)cc2cnc(Nc3ccc(N4CCNCC4)c(C)n3)nc12 [Compound 1092]
< 10	≥ 100	Cc1nc(Nc2ncc3cc([C@@H](C)O)nc(NCC(C)C)c3n2)ccc1N1CCNCC1 [Compound 1093]
< 10	≥ 100	Cc1nc(Nc2ncc3cc([C@@H](C)O)nc(NC4CCC4)c3n2)ccc1N1CCNCC1 [Compound 1094]
< 10	≥ 100	Cc1nc(Nc2ncc3cc([C@@H](C)O)nc(NCC4CC4)c3n2)ccc1N1CCNCC1 [Compound 1095]
10 to 100	≥ 100	CCNc1nc(C(F)F)cc2cnc(Nc3ccc(CN4CCC(C(=O)O)CC4)cn3)nc12 [Compound 1096]
10 to 100	≥ 100	CCCNc1nc(C(F)F)cc2cnc(Nc3ccc(CN4CCC(C(=O)O)CC4)cn3)nc12 [Compound 1097]
10 to 100	≥ 100	CC(C)CNc1nc(C(F)F)cc2cnc(Nc3ccc(CN4CCC(C(=O)O)CC4)cn3)nc12 [Compound 1098]
< 10	≥ 100	O=C(O)C1CCN(Cc2ccc(Nc3ncc4cc(C(F)F)nc(NC5CCC5)c4n3)nc2)CC1 [Compound 1099]
10 to 100	≥ 100	O=C(O)C1CCN(Cc2ccc(Nc3ncc4cc(C(F)F)nc(NCC5CC5)c4n3)nc2)CC1 [Compound 1100]
< 10	≥ 100	C[C@@H](O)c1cc2cnc(Nc3ccc(N4CCN(C)CC4)nn3)nc2c(NC(C)(C)CO)n1 [Compound 1101]
< 10	≥ 100	CCCNc1nc([C@@H](C)O)cc2cnc(Nc3ccc(N4CCN(C)CC4)nn3)nc12 [Compound 1102]
< 10	≥ 100	CCNc1nc([C@@H](C)O)cc2cnc(Nc3ccc(CN4CCN(C)CC4)cn3)nc12 [Compound 1103]

IC50 (CDK4/cyclin D3) [nM]	IC50 (CDK2/cyclin A2) [nM]	Compound
< 10	≥ 100	CCCNc1nc([C@@H](C)O)cc2cnc(Nc3ccc(CN4CCN(C)CC4)cn3)nc12 [Compound 1104]
< 10	≥ 100	COC[C@@H](C)Nc1nc([C@@H](C)O)cc2cnc(Nc3ccc(CN4CCN(C)CC4)cn3)nc12 [Compound 1105]
< 10	≥ 100	C[C@@H](O)c1cc2cnc(Nc3ccc(CN4CCN(C)CC4)cn3)nc2c(NC(C)(C)CO)n1 [Compound 1106]
< 10	≥ 100	CCNc1nc(C2(C)COC2)cc2cnc(Nc3ccc(CN4CCNCC4)cn3)nc12 [Compound 1107]
< 10	≥ 100	CC1(c2cc3cnc(Nc4ccc(CN5CCNCC5)cn4)nc3c(NC3CCC3)n2)COC1 [Compound 1108]
< 10	≥ 100	CC1(c2cc3cnc(Nc4ccc(CN5CCNCC5)cn4)nc3c(NCC3CC3)n2)COC1 [Compound 1109]
< 10	≥ 100	CC1(c2cc3cnc(Nc4ccc(CN5CCNCC5)cn4)nc3c(NCC3CC(F)(F)C3)n2)COC1 [Compound 1110]
10 to 100	≥ 100	CCCNc1nc([C@@H](C)OC)cc2cnc(Nc3ccc4c(n3)CCN(C(=O)CO)C4)nc12 [Compound 1111]
10 to 100	≥ 100	CCNc1nc([C@@H](C)OC)cc2cnc(Nc3ccc4c(n3)CCN(C(=O)CO)C4)nc12 [Compound 1112]
10 to 100	≥ 100	CO[C@H](C)c1cc2cnc(Nc3ccc4c(n3)CCN(C(=O)CO)C4)nc2c(N[C@H]2CCCOC2)n1 [Compound 1113]
< 10	≥ 100	O=C(CO)N1CCc2nc(Nc3ncc4cc(C5CCOC5)nc(N[C@H]5CCCOC5)c4n3)ccc2C1 (stereo partly shown) [Compound 1114]
< 10	≥ 100	CC1(c2cc3cnc(Nc4ccc5c(n4)CCN(C(=O)CO)C5)nc3c(N[C@H]3CCCOC3)n2)COC1 [Compound 1115]
< 10	≥ 100	CCCNc1nc([C@@H](C)O)cc2cnc(Nc3ccc4c(n3)CCN(C(=O)CO)C4)nc12 [Compound 1116]
10 to 100	≥ 100	CCNc1nc([C@@H](C)O)cc2cnc(Nc3ccc4c(n3)CCN(C(=O)CO)C4)nc12 [Compound 1117]
< 10	≥ 100	C[C@@H](O)c1cc2cnc(Nc3ccc4c(n3)CCN(C(=O)CO)C4)nc2c(N[C@H]2CCCOC2)n1 [Compound 1118]
< 10	≥ 100	CCCNc1nc([C@@H](C)OC)cc2cnc(Nc3ccc4c(n3)CCN(CCO)C4)nc12 [Compound 1119]
10 to 100	≥ 100	CCNc1nc([C@@H](C)OC)cc2cnc(Nc3ccc4c(n3)CCN(CCO)C4)nc12 [Compound 1120]
< 10	≥ 100	CO[C@H](C)c1cc2cnc(Nc3ccc4c(n3)CCN(CCO)C4)nc2c(N[C@H]2CCCOC2)n1 [Compound 1121]
< 10	≥ 100	OCCN1CCc2nc(Nc3ncc4cc(C5CCOC5)nc(N[C@H]5CCCOC5)c4n3)ccc2C1 (stereo partly shown) [Compound 1122]
